Earlier results in US7834258B2, “Dimer of chimeric recombinant binding domain-functional group fusion formed via disulfide-bond-bridge and the processes for producing the same” (priority 2003, dated 2010).

Test system: H2981 human lung adenocarcinoma cells

Structure (SMILES) | cytotoxicity (H2981 cells, 200 uM concentration) | IC50 (H2981 human lung adenocarcinoma cells, read-out: ID50 (the source's name))
Nc1nc(=O)[nH]cc1F [5-FC, 5-Fluorocytosine] | no effect | –
O=c1[nH]cc(F)c(=O)[nH]1 [5-FU, 5-Fluorouracil] | – | 20 µM
